#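 48-hour exposure; five concentrations; linearly interpolated endpoints. TGI: total growth inhibition.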
# What was measured:
# Experiment in all cases: inhibition of tumour cell growth, NCI panel, 48 h
# A549 NSCLC = tested on: A549 NSCLC
# SNB-75 CNS = tested on: SNB-75 CNS
# UACC-62 melanoma = tested on: UACC-62 melanoma
# UACC-257 melanoma = tested on: UACC-257 melanoma
# HOP-62 NSCLC = tested on: HOP-62 NSCLC
# OVCAR-3 ovarian = tested on: OVCAR-3 ovarian
# DLD-1 colon = tested on: DLD-1 colon
# CCRF-CEM leukemia = tested on: CCRF-CEM leukemia
# MOLT-4 leukemia = tested on: MOLT-4 leukemia
# HCT-15 colon = tested on: HCT-15 colon
# NCI-H226 lung = tested on: NCI-H226 lung
# 786-0 renal = tested on: 786-0 renal
# UO-31 renal = tested on: UO-31 renal
# DMS 114 small cell lung = tested on: DMS 114 small cell lung
# ACHN renal = tested on: ACHN renal
# SR leukemia = tested on: SR leukemia
# TK-10 renal = tested on: TK-10 renal
# SW-620 colon = tested on: SW-620 colon
# HCT-116 colon = tested on: HCT-116 colon
# NCI-H23 lung = tested on: NCI-H23 lung
# COLO 205 colon = tested on: COLO 205 colon
# XF 498 CNS = tested on: XF 498 CNS
# KM12 colon = tested on: KM12 colon
# A498 renal = tested on: A498 renal
# HCC-2998 colon = tested on: HCC-2998 colon
# SF-268 CNS = tested on: SF-268 CNS
# RPMI-8226 leukemia = tested on: RPMI-8226 leukemia
# SF-295 CNS = tested on: SF-295 CNS
# SK-MEL-2 melanoma = tested on: SK-MEL-2 melanoma
# MALME-3M melanoma = tested on: MALME-3M melanoma
# SF-539 CNS = tested on: SF-539 CNS
# SN12C renal = tested on: SN12C renal
# HOP-18 NSCLC = tested on: HOP-18 NSCLC
# LOX IMVI melanoma = tested on: LOX IMVI melanoma
# IGROV1 ovarian = tested on: IGROV1 ovarian
# M19-MEL melanoma = tested on: M19-MEL melanoma
# HT29 colon = tested on: HT29 colon
# NCI-H522 lung = tested on: NCI-H522 lung
# SK-MEL-5 melanoma = tested on: SK-MEL-5 melanoma
# KM20L2 colon = tested on: KM20L2 colon
# HOP-92 NSCLC = tested on: HOP-92 NSCLC
# SNB-19 CNS = tested on: SNB-19 CNS
# K-562 leukemia = tested on: K-562 leukemia
# M14 melanoma = tested on: M14 melanoma
# OVCAR-5 ovarian = tested on: OVCAR-5 ovarian
# HL-60(TB) leukemia = tested on: HL-60(TB) leukemia
# SK-OV-3 ovarian = tested on: SK-OV-3 ovarian
# LXFL 529 NSCLC = tested on: LXFL 529 NSCLC
# EKVX NSCLC = tested on: EKVX NSCLC
# DMS 273 small cell lung = tested on: DMS 273 small cell lung
# OVCAR-8 ovarian = tested on: OVCAR-8 ovarian
# NCI-H460 lung = tested on: NCI-H460 lung
# SK-MEL-28 melanoma = tested on: SK-MEL-28 melanoma
# CAKI-1 renal = tested on: CAKI-1 renal
# SNB-78 CNS = tested on: SNB-78 CNS
# RXF 393 renal = tested on: RXF 393 renal
# U251 CNS = tested on: U251 CNS
structure (smiles),measurement,setting,value
COc1cc(CNC2c3cc4c(cc3C(c3cc(OC)c(OC)c(OC)c3)[C@H]3C(=O)OCC23)OCO4)cc(OC)c1OC (some centres not stated),TGI,A549 NSCLC,> 100 µM
same,TGI,SNB-75 CNS,> 100 µM
same,TGI,UACC-62 melanoma,0.651 µM
same,TGI,UACC-257 melanoma,> 100 µM
same,TGI,HOP-62 NSCLC,0.631 µM
same,TGI,OVCAR-3 ovarian,> 100 µM
same,TGI,DLD-1 colon,> 100 µM
same,TGI,CCRF-CEM leukemia,40.9 µM
same,TGI,MOLT-4 leukemia,> 100 µM
same,TGI,HCT-15 colon,> 100 µM
same,TGI,NCI-H226 lung,0.487 µM
same,TGI,786-0 renal,> 100 µM
same,TGI,UO-31 renal,> 100 µM
same,TGI,DMS 114 small cell lung,0.444 µM
same,TGI,ACHN renal,> 100 µM
same,TGI,SR leukemia,> 100 µM
same,TGI,TK-10 renal,> 100 µM
same,TGI,SW-620 colon,> 100 µM
same,TGI,HCT-116 colon,0.707 µM
same,TGI,NCI-H23 lung,0.77 µM
same,TGI,COLO 205 colon,0.37 µM
same,TGI,XF 498 CNS,8.07 µM
same,TGI,KM12 colon,0.692 µM
same,TGI,A498 renal,0.762 µM
same,TGI,HCC-2998 colon,13.1 µM
same,TGI,SF-268 CNS,> 100 µM
same,TGI,RPMI-8226 leukemia,79.2 µM
same,TGI,SF-295 CNS,0.677 µM
same,TGI,SK-MEL-2 melanoma,> 100 µM
same,TGI,MALME-3M melanoma,> 100 µM
same,TGI,SF-539 CNS,0.403 µM
same,TGI,SN12C renal,> 100 µM
same,TGI,HOP-18 NSCLC,> 100 µM
same,TGI,LOX IMVI melanoma,> 100 µM
same,TGI,IGROV1 ovarian,> 100 µM
same,TGI,M19-MEL melanoma,> 100 µM
same,TGI,HT29 colon,19.5 µM
same,TGI,NCI-H522 lung,0.262 µM
same,TGI,SK-MEL-5 melanoma,0.538 µM
same,TGI,KM20L2 colon,0.359 µM
same,TGI,HOP-92 NSCLC,> 100 µM
same,TGI,SNB-19 CNS,> 100 µM
same,TGI,K-562 leukemia,> 100 µM
same,TGI,M14 melanoma,> 100 µM
same,TGI,OVCAR-5 ovarian,> 100 µM
same,TGI,HL-60(TB) leukemia,0.515 µM
same,TGI,SK-OV-3 ovarian,> 100 µM
same,TGI,LXFL 529 NSCLC,> 100 µM
CC1=NN(C(=O)c2ccc([N+](=O)[O-])cc2)C(=O)C1N=Nc1ccccc1C(=O)O (configuration not stated),TGI,A549 NSCLC,> 100 µM
same,TGI,EKVX NSCLC,> 100 µM
same,TGI,SNB-75 CNS,> 100 µM
same,TGI,UACC-62 melanoma,> 100 µM
same,TGI,UACC-257 melanoma,> 100 µM
same,TGI,DMS 273 small cell lung,> 100 µM
same,TGI,OVCAR-3 ovarian,> 100 µM
same,TGI,DLD-1 colon,> 100 µM
same,TGI,CCRF-CEM leukemia,> 100 µM
same,TGI,MOLT-4 leukemia,> 100 µM
same,TGI,NCI-H226 lung,> 100 µM
same,TGI,786-0 renal,> 100 µM
same,TGI,UO-31 renal,> 100 µM
same,TGI,DMS 114 small cell lung,> 100 µM
same,TGI,ACHN renal,> 100 µM
same,TGI,TK-10 renal,> 100 µM
same,TGI,SW-620 colon,> 100 µM
same,TGI,OVCAR-8 ovarian,> 100 µM
same,TGI,HCT-116 colon,> 100 µM
same,TGI,NCI-H23 lung,> 100 µM
same,TGI,COLO 205 colon,> 100 µM
same,TGI,NCI-H460 lung,> 100 µM
same,TGI,KM12 colon,> 100 µM
same,TGI,A498 renal,> 100 µM
same,TGI,HCC-2998 colon,> 100 µM
same,TGI,SK-MEL-28 melanoma,> 100 µM
same,TGI,SF-268 CNS,> 100 µM
same,TGI,CAKI-1 renal,> 100 µM
same,TGI,RPMI-8226 leukemia,> 100 µM
same,TGI,SF-295 CNS,> 100 µM
same,TGI,SK-MEL-2 melanoma,> 100 µM
same,TGI,MALME-3M melanoma,> 100 µM
same,TGI,SF-539 CNS,> 100 µM
same,TGI,SN12C renal,> 100 µM
same,TGI,SNB-78 CNS,> 100 µM
same,TGI,IGROV1 ovarian,> 100 µM
same,TGI,M19-MEL melanoma,> 100 µM
same,TGI,HT29 colon,> 100 µM
same,TGI,NCI-H522 lung,> 100 µM
same,TGI,SK-MEL-5 melanoma,> 100 µM
same,TGI,HOP-92 NSCLC,97.2 µM
same,TGI,RXF 393 renal,> 100 µM
same,TGI,SNB-19 CNS,> 100 µM
same,TGI,K-562 leukemia,> 100 µM
same,TGI,OVCAR-5 ovarian,> 100 µM
same,TGI,HL-60(TB) leukemia,> 100 µM
same,TGI,U251 CNS,> 100 µM
same,TGI,SK-OV-3 ovarian,> 100 µM
same,TGI,LXFL 529 NSCLC,> 100 µM
